According to US5292733A, “Cephalosporin compounds” (Lucky Limited, priority 1991, dated 1994):
Values after ≈ are worked out from the molar mass of the structure shown.

Assays:
Assay in all cases: Antibacterial activity MIC, two-fold agar dilution
Format in all cases: cell-based
[1] = tested on: Acinetobacter calcoaceticus ATCC 15473; conditions: Acinetobacter calcoaceticus ATCC 15473, Muller-Hinton agar, 37° C., 20 hours; for MIC: ATCC15473, read-out: Antibacterial Activity MIC
Method in brief: (§1)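 Steps: prepare two-fold serial compound dilutions in Muller-Hinton agar; inoculate 2 μl of standard strain at 10^7 CFU per ml; incubate 20 h at 37° C.; record MIC.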

[2] = tested on: Bacillus cereus ATCC 11778; conditions: Bacillus cereus ATCC 11778, Muller-Hinton agar, 37° C., 20 hours; for MIC: ATCC11778, read-out: Antibacterial Activity MIC
Method in brief: as §1

[3] = tested on: Bacillus megaterium ATCC 9885; conditions: Bacillus megaterium ATCC 9885, Muller-Hinton agar, 37° C., 20 hours; for MIC: Priestia megaterium, ATCC9885, read-out: Antibacterial Activity MIC
Method in brief: as §1

[4] = tested on: Citrobacter freundii ATCC 8090; conditions: Citrobacter freundii ATCC 8090, Muller-Hinton agar, 37° C., 20 hours; for MIC: ATCC8090, read-out: Antibacterial Activity MIC
Method in brief: as §1

[5] = tested on: Enterobacter aerogenes ATCC 29751; conditions: Enterobacter aerogenes ATCC 29751, Muller-Hinton agar, 37° C., 20 hours; for MIC: Klebsiella aerogenes, ATCC29751, read-out: Antibacterial Activity MIC
Method in brief: as §1

[6] = tested on: Enterobacter cloacae ATCC 27508; conditions: Enterobacter cloacae ATCC 27508, Muller-Hinton agar, 37° C., 20 hours; for MIC: ATCC27508, read-out: Antibacterial Activity MIC
Method in brief: as §1

[7] = tested on: Escherichia coli ATCC 10536; conditions: 37° C., 20 hours; for MIC: ATCC10536, Muller-Hinton agar
Method in brief: as §1

[8] = tested on: Escherichia coli ATCC 25922; conditions: 37° C., 20 hours; for MIC: ATCC25922, Muller-Hinton agar
Method in brief: as §1

[9] = tested on: Klebsiella pneumoniae ATCC 10031; conditions: Klebsiella pneumoniae ATCC 10031, Muller-Hinton agar, 37° C., 20 hours; for MIC: ATCC10031, read-out: Antibacterial Activity MIC
Method in brief: as §1

[10] = tested on: Micrococcus luteus ATCC 9341; conditions: Micrococcus luteus ATCC 9341, Muller-Hinton agar, 37° C., 20 hours; for MIC: ATCC9341, read-out: Antibacterial Activity MIC
Method in brief: as §1

[11] = tested on: Morganella morganii ATCC 8076h; conditions: Muller-Hinton agar, 37° C., 20 hours; for MIC: ATCC8076H
Method in brief: as §1

[12] = tested on: Proteus mirabilis ATCC 25933; conditions: Proteus mirabilis ATCC 25933, Muller-Hinton agar, 37° C., 20 hours; for MIC: ATCC25933, read-out: Antibacterial Activity MIC
Method in brief: as §1

[13] = tested on: Proteus vulgaris ATCC 6059; conditions: Proteus vulgaris ATCC 6059, Muller-Hinton agar, 37° C., 20 hours; for MIC: ATCC6059, read-out: Antibacterial Activity MIC
Method in brief: as §1

[14] = tested on: Providencia rettgeri ATCC 9250; conditions: 37° C., 20 hours; for MIC: ATCC9250, Muller-Hinton agar
Method in brief: as §1

[15] = tested on: Pseudomonas aeruginosa ATCC 10145; conditions: Pseudomonas aeruginosa ATCC 10145, Muller-Hinton agar, 37° C., 20 hours; for MIC: ATCC10145, read-out: Antibacterial Activity MIC
Method in brief: as §1

[16] = tested on: Pseudomonas aeruginosa ATCC 25619; conditions: Pseudomonas aeruginosa ATCC 25619, Muller-Hinton agar, 37° C., 20 hours; for MIC: ATCC25619, read-out: Antibacterial Activity MIC
Method in brief: as §1

[17] = tested on: Pseudomonas aeruginosa ATCC 27853; conditions: Pseudomonas aeruginosa ATCC 27853, Muller-Hinton agar, 37° C., 20 hours; for MIC: ATCC27853, read-out: Antibacterial Activity MIC
Method in brief: as §1

[18] = tested on: Salmonella typhimurium ATCC 14028; conditions: Salmonella typhimurium ATCC 14028, Muller-Hinton agar, 37° C., 20 hours; for MIC: Salmonella enterica, read-out: Antibacterial Activity MIC
Method in brief: as §1

[19] = tested on: Serratia marcescens ATCC 27117; conditions: Serratia marcescens ATCC 27117, Muller-Hinton agar, 37° C., 20 hours; for MIC: ATCC27117, read-out: Antibacterial Activity MIC
Method in brief: as §1

[20] = tested on: Shigella flexneri ATCC 11836; conditions: 37° C., 20 hours; for MIC: ATCC11836, Muller-Hinton agar
Method in brief: as §1

[21] = tested on: Shigella sonnei ATCC 11060; conditions: 37° C., 20 hours; for MIC: ATCC11060, Muller-Hinton agar
Method in brief: as §1

[22] = tested on: Staphylococcus aureus ATCC 10537; conditions: Staphylococcus aureus ATCC 10537, Muller-Hinton agar, 37° C., 20 hours; for MIC: ATCC10537, read-out: Antibacterial Activity MIC
Method in brief: as §1

[23] = tested on: Staphylococcus aureus ATCC 6538p; conditions: Staphylococcus aureus ATCC 6538p, Muller-Hinton agar, 37° C., 20 hours; for MIC: ATCC6538P, read-out: Antibacterial Activity MIC
Method in brief: as §1

[24] = tested on: Staphylococcus epidermidis ATCC 12228; conditions: Staphylococcus epidermidis ATCC 12228, Muller-Hinton agar, 37° C., 20 hours; for MIC: ATCC12228, read-out: Antibacterial Activity MIC
Method in brief: as §1

[25] = tested on: Streptococcus faecalis ATCC 29212; conditions: Streptococcus faecalis ATCC 29212, Muller-Hinton agar, 37° C., 20 hours; for MIC: Enterococcus faecalis, ATCC29212, read-out: Antibacterial Activity MIC
Method in brief: as §1

(6R,7R)-7-[(Z)-2-(5-aminothiazol-4-yl)-2-(2-propyn-1-oxyimino)acetamido]-3-(2,6-diamino-1-methylpyrimidinium-4-yl)thiomethyl-3-cephem-4-carboxylate [Compound I-16]
Antibacterial Activity MIC [1]: 8 µg/mL | Antibacterial Activity MIC [2]: 64 µg/mL | Antibacterial Activity MIC [3]: 0.25 µg/mL | Antibacterial Activity MIC [4]: 0.25 µg/mL | Antibacterial Activity MIC [5]: 1 µg/mL | Antibacterial Activity MIC [6]: 0.063 µg/mL | Antibacterial Activity MIC ([7]; Muller-Hinton agar): 0.5 µg/mL | Antibacterial Activity MIC ([8]; Muller-Hinton agar): 0.5 µg/mL | Antibacterial Activity MIC [9]: 0.016 µg/mL | Antibacterial Activity MIC [10]: 0.031 µg/mL | Antibacterial Activity MIC [11]: 0.016 µg/mL | Antibacterial Activity MIC [12]: 1 µg/mL | Antibacterial Activity MIC [13]: 1 µg/mL | Antibacterial Activity MIC ([14]; Muller-Hinton agar): <= 0.008 μg/ml | Antibacterial Activity MIC [15]: 8 µg/mL | Antibacterial Activity MIC [16]: 2 µg/mL | Antibacterial Activity MIC [17]: 4 µg/mL | Antibacterial Activity MIC [18]: 1 µg/mL | Antibacterial Activity MIC [19]: 2 µg/mL | Antibacterial Activity MIC ([20]; Muller-Hinton agar): 0.25 µg/mL | Antibacterial Activity MIC ([21]; Muller-Hinton agar): 0.5 µg/mL | Antibacterial Activity MIC [22]: 0.5 µg/mL | Antibacterial Activity MIC [23]: 0.5 µg/mL | Antibacterial Activity MIC [24]: 0.25 µg/mL | Antibacterial Activity MIC [25]: 32 µg/mL

CC(O/N=C(\C(=O)N[C@@H]1C(=O)N2C(C(=O)[O-])=C(CSc3cc(N)[n+](C)c(N)n3)CS[C@H]12)c1csc(N)n1)C(=O)O (stereo partly drawn) [Compound I-19, (6R,7R)-7-[(Z)-2-(2-aminothiazol-4-yl)-2-(R,S-carboxyeth-1-oxyimino)acetamido]-3-(2,6-diamino-1-methylpyrimidinium-4-yl)thiomethyl-3-cephem-4-carboxylate]
MIC [1]: 8 µg/mL (≈ 13.1 µM) | MIC [2]: 128 µg/mL (≈ 210 µM) | MIC [3]: 0.25 µg/mL (≈ 0.41 µM) | MIC [4]: 0.13 µg/mL (≈ 0.213 µM) | MIC [5]: 1 µg/mL (≈ 1.64 µM) | MIC [6]: 0.031 µg/mL (≈ 0.0508 µM) | MIC [7]: 0.13 µg/mL (≈ 0.213 µM) | MIC [8]: 0.13 µg/mL (≈ 0.213 µM) | MIC [9]: 0.063 µg/mL (≈ 0.103 µM) | MIC [10]: 0.5 µg/mL (≈ 0.82 µM) | MIC [11]: ≤ 0.008 µg/mL | MIC [12]: 0.13 µg/mL (≈ 0.213 µM) | MIC [13]: 0.25 µg/mL (≈ 0.41 µM) | MIC [14]: ≤ 0.008 µg/mL | MIC [15]: 4 µg/mL (≈ 6.56 µM) | MIC [16]: 1 µg/mL (≈ 1.64 µM) | MIC [17]: 2 µg/mL (≈ 3.28 µM) | MIC [18]: 0.25 µg/mL (≈ 0.41 µM) | MIC [19]: 0.25 µg/mL (≈ 0.41 µM) | MIC [20]: 0.016 µg/mL (≈ 0.0262 µM) | MIC [21]: 0.25 µg/mL (≈ 0.41 µM) | MIC [22]: 4 µg/mL (≈ 6.56 µM) | MIC [23]: 4 µg/mL (≈ 6.56 µM) | MIC [24]: 4 µg/mL (≈ 6.56 µM) | MIC [25]: 128 µg/mL (≈ 210 µM)

CC[n+]1c(N)cc(SCC2=C(C(=O)[O-])N3C(=O)[C@@H](NC(=O)/C(=N\OC(C)(C)C(=O)O)c4csc(N)n4)[C@H]3SC2)nc1N [Compound I-13, (6R,7R)-7-[(Z)-2-(2-aminothiazol-4-yl)-2-(carboxyprop-2-oxyimino)acetamido]-3-(2,6-diamino-1-ethylpyrimidinium-4-yl)thiomethyl-3-cephem-4-carboxylate]
MIC [1]: 8 µg/mL (≈ 12.5 µM) | MIC [2]: 128 µg/mL (≈ 201 µM) | MIC [3]: 0.25 µg/mL (≈ 0.392 µM) | MIC [4]: 0.13 µg/mL (≈ 0.204 µM) | MIC [5]: 2 µg/mL (≈ 3.14 µM) | MIC [6]: 0.031 µg/mL (≈ 0.0486 µM) | MIC [7]: 0.13 µg/mL (≈ 0.204 µM) | MIC [8]: 0.13 µg/mL (≈ 0.204 µM) | MIC [9]: 0.063 µg/mL (≈ 0.0988 µM) | MIC [10]: 0.5 µg/mL (≈ 0.784 µM) | MIC [11]: ≤ 0.008 µg/mL | MIC [12]: 0.13 µg/mL (≈ 0.204 µM) | MIC [13]: 0.25 µg/mL (≈ 0.392 µM) | MIC [14]: ≤ 0.008 µg/mL | MIC [15]: 2 µg/mL (≈ 3.14 µM) | MIC [16]: 1 µg/mL (≈ 1.57 µM) | MIC [17]: 1 µg/mL (≈ 1.57 µM) | MIC [18]: 0.25 µg/mL (≈ 0.392 µM) | MIC [19]: 0.5 µg/mL (≈ 0.784 µM) | MIC [20]: 0.063 µg/mL (≈ 0.0988 µM) | MIC [21]: 0.25 µg/mL (≈ 0.392 µM) | MIC [22]: 4 µg/mL (≈ 6.27 µM) | MIC [23]: 8 µg/mL (≈ 12.5 µM) | MIC [24]: 2 µg/mL (≈ 3.14 µM) | MIC [25]: > 128 µg/mL
